Results taken from patent US20220324835A1 (Nurix Therapeutics, Inc., priority 2018, published 2022).

Tests used:
T-cell [1] = test: CD25 cell surface staining on T-cells co-stimulated with anti-CD3 and anti-CD28 antibody (Biological Example 2); assay type: cell-based, human; details: Homo sapiens, T-cell, primary human total T-cells, baseline = anti-CD3/anti-CD28 stimulated cells without inhibitor, read-out: CD25 staining, Anti-CD3/Anti-CD28 stimulation, fold change over baseline; for fold induction at 0.3 µM: 0.3 μM compound; for fold induction at 1 µM: 1 μM compound; for fold induction at 4 µM: 4 μM compound
Outline: (§1)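 Values are fold-change over baseline: readings (IL-2 release, CD25 staining) from inhibitor-treated T-cells divided against untreated cells […]. No detailed procedure stated.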

T-cell [2] = test: IL-2 secretion from T-cells co-stimulated with anti-CD3 and anti-CD28 antibody (Biological Example 2); assay type: cell-based, human; details: Homo sapiens, T-cell, primary human total T-cells, baseline = anti-CD3/anti-CD28 stimulated cells without inhibitor, read-out: IL-2 secretion, Anti-CD3/Anti-CD28 stimulation, fold change over baseline; for fold induction at 0.3 µM: 0.3 μM compound; for fold induction at 1 µM: 1 μM compound; for fold induction at 4 µM: 4 μM compound
Outline: as §1

Cbl-b [3] = molecular target: T1, Cbl-b (Homo sapiens, UniProt Q13191); test: Cbl-b activity assay (Cbl-b inhibition assay), TR-FRET of Cbl-b interaction with UbcH5B-Ub; assay type: biochemical; details: assay buffer with 100 mM NaCl, 60 nM Src kinase; read-out: Cbl-b activity IC50
T1 sequence (Q13191 36-427): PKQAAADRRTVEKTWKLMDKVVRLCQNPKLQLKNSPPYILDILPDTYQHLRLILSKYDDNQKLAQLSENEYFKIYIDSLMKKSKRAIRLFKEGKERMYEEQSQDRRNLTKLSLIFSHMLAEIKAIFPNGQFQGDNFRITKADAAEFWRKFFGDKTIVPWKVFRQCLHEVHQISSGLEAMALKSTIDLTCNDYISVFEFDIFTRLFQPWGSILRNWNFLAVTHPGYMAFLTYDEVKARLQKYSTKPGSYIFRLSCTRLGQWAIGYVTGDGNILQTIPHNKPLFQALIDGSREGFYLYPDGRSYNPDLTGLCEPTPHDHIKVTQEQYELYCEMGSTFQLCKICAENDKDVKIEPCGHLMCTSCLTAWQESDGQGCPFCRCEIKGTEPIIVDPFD
Outline: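 Compound-treated Cbl-b was incubated 1.5 h with Src kinase (60 nM final; 30 nM for asterisked values, which also used 50 mM instead of 100 mM NaCl), 1 mM ATP and 5 mM MgCl2. Binding to fluorescent Ub-loaded UbcH5B (C85K mutant) was then read by TR-FRET after 1 h more.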

T-cell [4] = test: IL-2 secretion from T-cells stimulated with anti-CD3 antibody alone (Biological Example 2); assay type: cell-based; details: primary human total T-cells, read-out: IL-2 secretion, Anti-CD3 stimulation, fold change over baseline; for fold induction at 1 µM: 1 μM compound; for fold induction at 8 µM: 8 μM compound
Cbl-b (residues 36-427) = Cbl-b (residues 36-427) (Homo sapiens, UniProt Q13191); test: Cbl-b binding assay (SPR, Biacore T200); details: 20° C., 1:1 binding model
Sequence of Cbl-b (residues 36-427) (Q13191 36-427): as above
Outline: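 NeutrAvidin capture chip, 20° C; 50 s injections at 50 μl/min, 90-180 s dissociation; 0.3 M NaCl regeneration. Asterisked column: 50 mM NaCl buffer and 30 nM Src kinase in place of 100 mM NaCl and 60 nM Src kinase. 1:1 fit.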

T-cell [5] = test: CD25 cell surface staining on T-cells stimulated with anti-CD3 antibody alone (Biological Example 2); assay type: cell-based; details: primary human total T-cells, baseline = anti-CD3/anti-CD28 stimulated cells without inhibitor, read-out: CD25 staining, Anti-CD3 stimulation, fold change over baseline; for fold induction at 1 µM: 1 μM compound; for fold induction at 8 µM: 8 μM compound
Cbl-b [6] = molecular target: T1, Cbl-b; test: Cbl-b inhibition assay (Cbl-b activity assay, FRET, Biological Example 1; 100 mM NaCl, 60 nM Src kinase); assay type: biochemical; details: upper bound stated in text lists; read-out: IC50 values in the Cbl-b inhibition assay of Biological Example 1
Outline: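 Inhibitor activity is measured as reduced terbium-to-fluorescein FRET between streptavidin-terbium on biotinylated Cbl-b and Bodipy-fluorescein ubiquitin carried by an irreversible UbcH5B-Ub conjugate, binding of which depends on Src phosphorylation of Cbl-b.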

Compound	fold induction at 0.3 µM (T-cell [1])	fold induction at 1 µM (T-cell [1])	fold induction at 0.3 µM (T-cell [2])	fold induction at 1 µM (T-cell [2])	IC50 (Cbl-b [3]) [nM]	fold induction at 1 µM (T-cell [4])	Kd (Cbl-b (residues 36-427)) [nM]	fold induction at 1 µM (T-cell [5])	IC50 (Cbl-b [6]) [nM]	fold induction at 4 µM (T-cell [1])	fold induction at 4 µM (T-cell [2])	fold induction at 8 µM (T-cell [4])	fold induction at 8 µM (T-cell [5])
Cn1cnnc1CC1(c2cccc(NC(=O)c3cc(Cn4ccnn4)nc(C4CC4)n3)c2)COC1 [Compound 506, 2-cyclopropyl-N-(3-{3-[(4-methyl-1,2,4-triazol-3-yl)methyl]oxetan-3-yl}phenyl)-6-(1,2,3-triazol-1-ylmethyl)pyrimidine-4-carboxamide]	1.01 to 1.3	1.31 to 1.5	1.01 to 2.5	2.51 to 5	< 100	0.101 to 0.15	< 100	0.801 to 1	≤ 100	–	–	–	–
C[C@H](Cc1nncn1C)c1cccc(N2Cc3c(cc(CN4C[C@@H](O)[C@H](F)C4)cc3C(F)(F)F)C2=O)c1 [Compound 395, 6-(((3R,4R)-3-fluoro-4-hydroxypyrrolidin-1-yl)methyl)-2-(3-((R)-1-(4-methyl-4H-1,2,4-triazol-3-yl)propan-2-yl)phenyl)-4-(trifluoromethyl)isoindolin-1-one]	1.01 to 1.3	1.31 to 1.5	2.51 to 5	> 7.5	< 100	> 0.201	< 100	> 1	≤ 100	1.31 to 1.5	> 7.5	> 0.201	> 1
Cn1cnnc1CC1(c2cccc(N3Cc4c(cc(CN5CC[C@H](F)C5)cc4C4CC4)C3=O)c2)COC1 [Example 554, (S)-4-cyclopropyl-6-((3-fluoropyrrolidin-1-yl)methyl)-2-(3-(3-((4-methyl-4H-1,2,4-triazol-3-yl)methyl)oxetan-3-yl)phenyl)isoindolin-1-one]	1.31 to 1.5	1.31 to 1.5	> 7.5	> 7.5	< 100	0.151 to 0.2	< 100	> 1	≤ 100	–	–	–	–
Cn1cnnc1CC(C)(C)c1cccc(N2Cc3c(cc(C4CC4)cc3C(F)(F)F)C2=O)c1 [Compound 477, 6-cyclopropyl-2-(3-(2-methyl-1-(4-methyl-4H-1,2,4-triazol-3-yl)propan-2-yl)phenyl)-4-(trifluoromethyl)isoindolin-1-one]	1.01 to 1.3	1.01 to 1.3	1.01 to 2.5	2.51 to 5	< 100	0.101 to 0.15	< 100	0.801 to 1	≤ 100	1.31 to 1.5	5 to 7.5	> 0.201	> 1
Cc1conc1C[C@@H](C)c1cccc(N2Cc3c(cccc3C(F)(F)F)C2=O)c1 [Compound 367a, (R)-2-(3-(1-(4-Methylisoxazol-3-yl)propan-2-yl)phenyl)-4-(trifluoromethyl)isoindolin-1-one]	1.01 to 1.3	< 1	< 1	< 1	100 to 300	0.051 to 0.1	1000 to 3000	0.601 to 0.8	≤ 300	1.01 to 1.3	1.01 to 2.5	0.151 to 0.2	0.801 to 1
C[C@H](Cc1nncn1C)c1cccc(N2Cc3c(cc(CN4CC[C@@H](F)C4)cc3C(F)(F)F)C2=O)c1 [Compound 400, 6-(((R)-3-fluoropyrrolidin-1-yl)methyl)-2-(3-((R)-1-(4-methyl-4H-1,2,4-triazol-3-yl)propan-2-yl)phenyl)-4-(trifluoromethyl)isoindolin-1-one]	1.01 to 1.3	1.01 to 1.3	5 to 7.5	> 7.5	< 100	> 0.201	< 100	> 1	≤ 100	1.31 to 1.5	> 7.5	> 0.201	> 1
Cn1cnnc1C[C@H](c1cccc(N2Cc3c(cccc3C(F)(F)F)C2=O)c1)C(F)(F)F [Compound 471a, (R)-2-(3-(1,1,1-trifluoro-3-(4-methyl-4H-1,2,4-triazol-3-yl)propan-2-yl)phenyl)-4-(trifluoromethyl)isoindolin-1-one]	1.01 to 1.3	1.01 to 1.3	1.01 to 2.5	1.01 to 2.5	100 to 300	0.051 to 0.1	301 to 1000	0.601 to 0.8	≤ 300	1.01 to 1.3	1.01 to 2.5	0.101 to 0.15	0.801 to 1
Cn1cnnc1[C@H](F)[C@](C)(F)c1cccc(N2Cc3c(cc(C4CC4)cc3C(F)(F)F)C2=O)c1 [Compound 481a, 6-cyclopropyl-2-[3-[(1S,2R)-1,2-difluoro-1-(4-methyl-4H-1,2,4-triazol-3-yl)propan-2-yl]phenyl]-4-(trifluoromethyl)-2,3-dihydro-1H-isoindol-1-one]	1.01 to 1.3	1.01 to 1.3	< 1	1.01 to 2.5	100 to 300	0.051 to 0.1	100 to 300	0.801 to 1	–	1.01 to 1.3	2.51 to 5	0.101 to 0.15	> 1
C[C@H](O)CNc1cc([C@H](C)Cc2nncn2C)cc(N2Cc3c(cccc3C(F)(F)F)C2=O)n1 [Compound 364, 2-(6-((S)-2-hydroxypropylamino)-4-((R)-1-(4-methyl-4H-1,2,4-triazol-3-yl)propan-2-yl)pyridin-2-yl)-4-(trifluoromethyl)isoindolin-1-one]	1.01 to 1.3	1.01 to 1.3	1.01 to 2.5	1.01 to 2.5	301 to 1000	0.051 to 0.1	1000 to 3000	0.601 to 0.8	–	1.01 to 1.3	1.01 to 2.5	0.101 to 0.15	0.601 to 0.8
C[C@H](Cc1nocc1C(F)(F)F)c1cccc(N2Cc3c(cc(C(=O)N4CC[C@H](O)C4)cc3C(F)(F)F)C2=O)c1 [Compound 484, 6-[(3S)-3-hydroxypyrrolidine-1-carbonyl]-4-(trifluoromethyl)-2-[3-[(2R)-1-[4-(trifluoromethyl)-1,2-oxazol-3-yl]propan-2-yl]phenyl]-2,3-dihydro-1H-isoindol-1-one]	1.01 to 1.3	1.01 to 1.3	1.01 to 2.5	1.01 to 2.5	100 to 300	0.051 to 0.1	–	0.601 to 0.8	≤ 300	1.31 to 1.5	2.51 to 5	> 0.201	> 1
